{"source": "patent US11160869B2", "about": "(priority 2019, dated 2021)", "molecules": {"B1": {"name": "cholix derived carrier: truncated non-toxic cholix variant of 386 amino acids, carrier alone (protein)", "chain": "VEEALNIFDECRSPCSLTPEPGKPIQSKLSIPSDVVLDEGVLYYSMTINDEQNDIKDEDKGESIITIGEFATVRATRHYVNQDAPFGVIHLDITTENGTKTYSYNRKEGEFAINWLVPIGEDSPASIKISVDELDQQRNIIEVPKLYSIDLDNQTLEQWKTQGNVSFSVTRPEHNIAISWPSVSYKAAQKEGSRHKRWAHWHTGLALCWLVPMDAIYNYITQQNCTLGDNWFGGSYETVAGTPKVITVKQGIEQKPVEQRIHFSKGNAMSALAAHRVCGVPLETLARSRKPRDLTDDLSCAYQAQNIVSLFVATRILFSHLDSVFTLNLDEQEPEVAERLSDLRRINENNPGMVTQVLTVARQIYNDYVTHHPGLTPEQTSAGAQA"}}, "key": {"[1]": {"system": "growth factors, chemokines and cytokines", "format": "in vivo, mice", "conditions": "mouse, in vivo"}, "[2]": {"experiment": "Single oral capsule dose in NHP: plasma caffeine by LC-MS/MS", "format": "in vivo, Macaca fascicularis", "method": "In order to quantitate plasma caffeine levels, an LC-MS/MS detection system was employed. A 25-μL matrix aliquot was fortified with 25 μL of 2.00 μg/mL caffeine-trimethyl-^13C3 internal standard working solution. Analytes were isolated through supported liquid extraction (SLE). A portion of the eluate was transferred and evaporated under a nitrogen stream at approximately 45° C., and the remaining residue reconstituted with 500 μL of water/acetonitrile (95:5, v/v). The final extract was analyzed via HPLC with MS/MS detection using positive ion electrospray and reverse phase chromatography. Caffeine concentration was determined using similarly run calibration controls.\nIL-10 delivery construct dosing at multiple fixed doses in non-naïve adult male Macaca fascicularis was conducted by Valley Biosystems (West Sacramento, Calif.). […] Dosing groups are described in TABLE 45."}, "[3]": {"experiment": "Surfactant evaluation under shear stress (vortex 800 rpm 4 h): visual, turbidity, SEC-HPLC", "format": "physicochemical", "conditions": "for effect of surfactant on IL-10 delivery construct forms (SEC-HPLC): 1xPBS, before/after vortexing", "method": "Following vortexing, the solution was visually inspected. The sample without a surfactant was slightly hazy while the samples with the surfactant were clear after vortexing. The turbidity (340-360 nm) of the solution was assessed after vortexing.\nSEC-HPLC was carried out on the IL-10 delivery construct formulations before (FIG. 93) and after (FIG. 94) vortexing (TABLE 48)."}, "IL-10RA and IL-10RB": {"target": "T1, IL-10RA and IL-10RB (Homo sapiens, UniProt Q08334+Q13651)", "T1 sequence (Q13651 22-578)": "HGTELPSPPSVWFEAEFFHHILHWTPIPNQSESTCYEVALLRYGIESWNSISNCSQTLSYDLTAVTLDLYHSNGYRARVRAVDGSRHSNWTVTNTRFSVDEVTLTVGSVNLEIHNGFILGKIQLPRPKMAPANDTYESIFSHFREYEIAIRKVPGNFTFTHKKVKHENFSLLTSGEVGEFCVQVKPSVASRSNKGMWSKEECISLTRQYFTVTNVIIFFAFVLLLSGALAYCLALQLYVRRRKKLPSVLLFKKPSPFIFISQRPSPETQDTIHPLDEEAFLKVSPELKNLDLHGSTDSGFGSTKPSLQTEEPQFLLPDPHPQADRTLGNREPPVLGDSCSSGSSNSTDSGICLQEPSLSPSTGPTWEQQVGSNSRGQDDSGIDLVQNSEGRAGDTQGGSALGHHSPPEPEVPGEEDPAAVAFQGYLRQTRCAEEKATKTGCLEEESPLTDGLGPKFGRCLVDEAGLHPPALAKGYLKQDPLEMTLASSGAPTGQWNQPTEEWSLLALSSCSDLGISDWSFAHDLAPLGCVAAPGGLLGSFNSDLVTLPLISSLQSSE", "T1 sequence (Q08334 20-325)": "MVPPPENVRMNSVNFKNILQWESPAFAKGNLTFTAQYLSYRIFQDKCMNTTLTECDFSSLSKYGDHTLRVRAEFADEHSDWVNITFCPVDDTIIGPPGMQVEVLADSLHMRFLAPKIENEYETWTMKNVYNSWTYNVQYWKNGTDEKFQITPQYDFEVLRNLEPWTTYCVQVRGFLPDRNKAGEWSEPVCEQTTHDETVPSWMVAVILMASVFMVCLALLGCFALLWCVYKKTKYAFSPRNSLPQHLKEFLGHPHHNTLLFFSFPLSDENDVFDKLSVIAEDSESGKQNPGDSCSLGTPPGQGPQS", "experiment": "IL-10 receptor dimerization luminescence assay in engineered U2OS cells", "conditions": "6 h"}, "[4]": {"experiment": "Intraluminal injection in T-cell transfer model: rhIL-10 ELISA in intestinal tissue and serum", "format": "in vivo, BALB/c and SCID mice", "conditions": "intraluminal injection", "method": "This study was conducted to examine the potential for the carrier protein to transport rhIL-10 from the intestinal lumen into the submucosal region in inflamed intestinal tissue. The T lymphocyte (T cell) transfer model was used as it is a well-established model of induced chronic colitis in mice and presents many of the essential immunological hallmarks observed in IBD patients. Nine BALB/c mice and twelve SCID mice, including nine with the colitis-like model of inflammation, were dosed with 20 μl of test article via intraluminal injection into the distal ileum and the proximal, middle and distal colon. […] In each group, two mice were terminated 10 minutes after intraluminal injections, and one was terminated 40 minutes after intraluminal injections. Intestinal tissue and serum were collected. Collected tissue was fixed, embedded, sectioned and H&E stained for histological assessment of inflammatory status. ELISA analysis to measure rhIL 10 was performed on lysates prepared from intestinal tissue and serum (FIGS. 106A-106D)."}, "IL-1Ra": {"system": "IL-1Ra", "experiment": "Systemic IL-1Ra in non-inflamed mice (ELISA MSD)", "format": "in vivo", "conditions": "construct 10 mg/kg; rhIL-10 3 mg/kg; oral"}, "STAT3 [5]": {"system": "STAT3", "experiment": "pSTAT3/total STAT3 in colon tissue of non-inflamed mice (ELISA MSD)", "format": "in vivo", "conditions": "construct 1 mg/kg; rhIL-10 0.9 mg/kg; oral"}, "STAT3 [6]": {"system": "STAT3", "experiment": "STAT3 phosphorylation in J774.2 macrophage cells"}, "STAT3 [7]": {"system": "STAT3", "experiment": "pSTAT3 induction and hIL-10 in intestinal tissue 40 min after oral gavage, immunofluorescence and image analysis", "format": "in vivo, rat", "conditions": "40 min post oral gavage", "method": "This observation is consistent with findings in mice that intestinal epithelial cells can express IL-10 receptors at their apical surface under certain conditions associated with development and maintenance of barrier function. […] In order to quantify how test articles affected intestinal IL-10 signal transduction pathways, image analysis was performed: high-throughput image batches were collected, segmented by epithelial versus lamina propria localization, and then by cellular features."}}}
{"molecule": "Nc1ccc(O)c(C(=O)O)c1", "note": "[5-ASA, 5-aminosalicylic acid, reference compound]", "values": [{"measurement": "oxazolone-induced increase in plasma GCSF/CSF3", "setting": "[1]", "result": "attenuated"}]}
{"molecule": "Cn1c(=O)c2c(ncn2C)n(C)c1=O", "note": "[caffeine]", "values": [{"measurement": "time at which absorption of caffeine was observable (capsule opening)", "setting": "[2]; all doses", "result": "2-3 hours post dose"}, {"measurement": "Cmax", "setting": "[2]; male, cynomolgus monkey, plasma, po, 1 mg dosing group, 1x10 mg caffeine", "result": 1350, "unit": "ng/mL"}, {"measurement": "Cmax", "setting": "[2]; male, cynomolgus monkey, plasma, po, 20.5 mg dosing group, 1x10 mg caffeine", "result": 800, "unit": "ng/mL"}, {"measurement": "Cmax", "setting": "[2]; male, cynomolgus monkey, plasma, po, 82 mg dosing group, 4x10 mg caffeine", "result": 3790, "unit": "ng/mL"}, {"measurement": "Cmax", "setting": "[2]; male, cynomolgus monkey, plasma, po, 4x10 mg caffeine", "result": 6120, "unit": "ng/mL"}, {"measurement": "Tmax", "setting": "[2]; male, cynomolgus monkey, plasma, po, all doses", "result": 4, "unit": "h"}]}
{"molecule": "polysorbate 20", "values": [{"measurement": "absorbance in the 340-360 nm range after vortexing", "setting": "[3]; 0.1% in 1xPBS", "result": "increase in absorbance was also observed"}, {"measurement": "effect of surfactant on IL-10 delivery construct forms (SEC-HPLC)", "setting": "[3]", "result": "most amount of monomer before vortexing"}]}
{"molecule": "polysorbate 80", "values": [{"measurement": "effect of surfactant on IL-10 delivery construct forms (SEC-HPLC)", "setting": "[3]", "result": "increase in HMW aggregates and monomers"}]}
{"molecule": "rhIL-10: recombinant human IL-10, commercial preparation, comparator [reference compound]", "values": [{"measurement": "EC50", "setting": "IL-10RA and IL-10RB; read-out: EC50, IL-10R dimerization", "result": 0.0915, "unit": "nM"}, {"measurement": "rhIL-10 in serum of inflamed animals", "setting": "[4]", "result": "minimal amounts of rhIL-10 were detected"}, {"measurement": "increase of systemic IL-1Ra", "setting": "IL-1Ra", "result": "did not significantly increase"}, {"measurement": "increase in ratio of pSTAT3 to total STAT3", "setting": "STAT3 [5]", "result": "did not significantly alter"}, {"measurement": "amplitude of pSTAT3/total STAT3", "setting": "STAT3 [6]", "result": 2.19, "unit": "%"}, {"measurement": "hIL-10 and pSTAT3 in intestinal tissue", "setting": "STAT3 [7]", "result": "exhibited pSTAT3 induction in enterocytes but not in cells within the lamina propria"}]}
{"molecule": "B1", "values": [{"measurement": "EC50, IL-10R dimerization", "setting": "IL-10RA and IL-10RB", "result": "did not induce IL-10R dimerization"}]}
